According to the supplement of paper PMC9673313:

compound: Clc1ccc2c(N3CCN(CCCN4CCN(c5ccnc6cc(Cl)ccc56)CC4)CC3)ccnc2c1 [piperaquine]
Procedure: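 Kenyan Plasmodium falciparum field isolates (2008-2021) were tested in a SYBR Green I growth-inhibition assay, either immediately ex vivo (fresh samples) or in vitro after culture adaptation. Cultures were at 1% parasitemia and 2% hematocrit, incubated with serial drug dilutions for 72 h at 37 °C (5% O2, 5% CO2), then read by fluorescence. IC50 was fitted by non-linear regression of the dose-response curve.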

In order of rising IC50 growth inhibition:
1. MGT 21/08/0109  0.4 ng/mL
2. KOM 21/02/0237  1 ng/mL
3. KOM 13/07/0010  1.14 ng/mL
4. KDH 18/07/0001  1.19 ng/mL
5. KSI 14/04/534  1.27 ng/mL
6. KOM 21/05/0280  1.3 ng/mL
7. MDH 10/8/0014  1.39 ng/mL
8. KOM 15/05/417  1.45 ng/mL
9. KOM 15/05/416  1.62 ng/mL
10. MDH 16/05/150  1.67 ng/mL
11. KSI 15/04/743  1.75 ng/mL
12. KOM 21/03/0254  2.1 ng/mL
13. KOM 21/05/0271  2.1 ng/mL
14. KCH 15/10/339  2.52 ng/mL
15. KOM 21/05/0278  2.7 ng/mL
16. KDH 16/07/1829  2.72 ng/mL
17. KSI 21/04/0063  3 ng/mL
18. KDH 21/04/0218  3 ng/mL
19. MGT16/01/118  3.04 ng/mL
20. KCH 19/04/0010  3.14 ng/mL
21. KCH 16/08 369  3.23 ng/mL
22. MDH 18/09/0008  3.25 ng/mL
23. MGT 17/11/133  3.35 ng/mL
24. MGT 14/07/0033  3.35 ng/mL
25. MGT 15/10/104  3.35 ng/mL
26. MGT 18/09/0013  3.48 ng/mL
27. KSI 19/06/0027  3.54 ng/mL
28. KOM 21/05/0272  3.7 ng/mL
29. MDH 18/08/003  3.81 ng/mL
30. KSI 14/08/627  4.19 ng/mL
31. KDH 16/07/1832  4.27 ng/mL
32. KDH 12/11/928  4.44 ng/mL
33. KOM 15/03/383  4.53 ng/mL
34. MGT 21/05/0116  4.6 ng/mL
35. KDH 15/01/1569  4.62 ng/mL
36. KCH 18/09/0003  4.7 ng/mL
37. KSI 17/10/920  4.71 ng/mL
38. KCH 17/09/374  4.92 ng/mL
39. KSI 15/04/730  5.13 ng/mL
40. KSI 16/07/908  5.24 ng/mL
41. KCH 16/05/361  5.83 ng/mL
42. KOM 13/07/0007  6.16 ng/mL
43. MGT 21/05/115  6.2 ng/mL
44. MGT 14/03/0007  6.4 ng/mL
45. KSI 14/03/507  6.69 ng/mL
46. KOM 16/08/0627  6.7 ng/mL
47. 601-0157  6.8 ng/mL
48. KSI 13/06/360  6.81 ng/mL
49. KSI 18/09/0006  6.86 ng/mL
50. KDH 16/07/1830  6.94 ng/mL
51. KCH 17/09/373  7.01 ng/mL
52. KDH 21/05/0225  7.1 ng/mL
53. KDH 19/07/0120  7.45 ng/mL
54. MDH 16/08/153  7.62 ng/mL
55. KOM 16/07/0610  7.67 ng/mL
56. KSI 15/08/809  7.78 ng/mL
57. MGT 14/03/0015  7.79 ng/mL
58. MGT 21/03/0108  7.8 ng/mL
59. KSI 13/10/430  7.84 ng/mL
60. MGT 14/03/0012  8.31 ng/mL
61. KOM 20/02/0178  8.32 ng/mL
62. KSI 18/09/0004  8.35 ng/mL
63. KCH 14/10/281  8.57 ng/mL
64. KCH 10/05/113  8.58 ng/mL
65. KCH 10/05/0116  8.81 ng/mL
66. KOM 19/12/0150  9.09 ng/mL
67. MDH 19/01/0029  9.67 ng/mL
68. KOM 15/04/398  9.75 ng/mL
69. KDH 15/06/1657  9.96 ng/mL
70. KOM 18/07/0004  10.1 ng/mL
71. KSI 21/04/0062  10.2 ng/mL
72. MDH 12/01/0067  10.7 ng/mL
73. KOM 20/01/0165  11.1 ng/mL
74. KOM 16/07/0620  11.4 ng/mL
75. KDH 10/12/535  11.4 ng/mL
76. KSI 10/09/096  11.6 ng/mL
77. KSI 16/07/907  11.6 ng/mL
78. KDH 14/05/1402  11.9 ng/mL
79. KCH 11/05/145  12 ng/mL
80. MDH 12/01/0063  12 ng/mL
81. KSI 15/09/825  12.1 ng/mL
82. KCH 10/06/119  12.7 ng/mL
83. KSI 14/03/506  12.8 ng/mL
84. KSI 14/03/504  13 ng/mL
85. KCH 14/03/247  13.2 ng/mL
86. MGT 19/11/0063  13.6 ng/mL
87. KOM 21/03/0292  13.7 ng/mL
88. KDH 14/05/1397  13.7 ng/mL
89. KDH 12/11/923  14.5 ng/mL
90. KOM 13/10/0073 D28/0  15 ng/mL
91. KOM 14/03/169  15 ng/mL
92. KSI 16/07/912  15.1 ng/mL
93. 601-239  15.6 ng/mL
94. KSI 10/11/118  15.7 ng/mL
95. KSI 14/02/488  15.7 ng/mL
96. KOM 20/01/0168  15.7 ng/mL
97. KOM 14/09/317  15.9 ng/mL
98. KSI 14/01/474  16 ng/mL
99. 601-006  16 ng/mL
100. KDH 10/02/0354  16 ng/mL
101. 601-0031  16.1 ng/mL
102. KDH 15/06/1659  16.5 ng/mL
103. KOM 14/06/270  17.1 ng/mL
104. KOM 13/11/104  17.5 ng/mL
105. KDH 19/12/0157  17.5 ng/mL
106. KOM 16/07/0609  18.1 ng/mL
107. KOM 20/01/0172  18.4 ng/mL
108. KDH 21/02/0197  18.4 ng/mL
109. KOM 13/10/0089  18.6 ng/mL
110. MDH 12/01/0062  19 ng/mL
111. KDH 16/07/1821  19.1 ng/mL
112. KOM 19/01/0053  19.1 ng/mL
113. KSI 12/01/224  19.3 ng/mL
114. KOM 14/04/222  19.3 ng/mL
115. KSI 13/04/334  19.5 ng/mL
116. KDH 19/12/0156  19.6 ng/mL
117. KSI 12/08/285  19.6 ng/mL
118. MGT 15/10/105  19.7 ng/mL
119. KSI 13/10/422  19.9 ng/mL
120. KDH 16/07/1823  20.2 ng/mL
121. KCH 11/04/143  20.5 ng/mL
122. KOM 13/09/0051  20.6 ng/mL
123. KDH 19/12/0155  20.8 ng/mL
124. 601-0163  22 ng/mL
125. KDH 15/04/1619  22.3 ng/mL
126. KOM 13/07/009  22.6 ng/mL
127. MGT 13/11/0003  22.9 ng/mL
128. KOM 13/08/0034  23.2 ng/mL
129. KSI 12/12/304  24.4 ng/mL
130. KDH 20/01/0163  24.5 ng/mL
131. MDH 13/08/145  24.8 ng/mL
132. 601-0140  25.1 ng/mL
133. KSI 15/10/831  25.1 ng/mL
134. 601-0154  25.2 ng/mL
135. KSI 15/06/782  25.5 ng/mL
136. KDH 16/07/1826  25.7 ng/mL
137. MDH 19/01/0031  26.2 ng/mL
138. KCH 13/9/226  26.8 ng/mL
139. KDH 14/05/1400  27 ng/mL
140. 601-0189  27.5 ng/mL
141. KDH 16/07/1831  27.8 ng/mL
142. KDH 15/04/1616  28 ng/mL
143. KSI 19/06/0032  28.1 ng/mL
144. KOM 21/08/0327  28.3 ng/mL
145. KDH 16/07/1828  28.5 ng/mL
146. KOM 13/11/116  28.7 ng/mL
147. KDH 20/01/0159  28.8 ng/mL
148. MGT 14/08/034  29.5 ng/mL
149. MGT 19/09/0057  29.7 ng/mL
150. KDH 10/11/521  30 ng/mL
151. MDH 19/12/0045  30.2 ng/mL
152. KOM 20/03/0184  30.8 ng/mL
153. KCH 16/07/365  31.2 ng/mL
154. 601-292  32.2 ng/mL
155. MGT 15/06/0090  34.3 ng/mL
156. KDH 21/02/0198  34.5 ng/mL
157. KOM 21/05/0277  35.3 ng/mL
158. KSI 19/12/0048  35.3 ng/mL
159. KOM 19/12/0166  35.5 ng/mL
160. KDH 21/02/0173  36.8 ng/mL
161. KDH 21/08/0254  37.9 ng/mL
162. KOM 15/05/421 D42  40.4 ng/mL
163. KSI 13/1/307  41 ng/mL
164. KCH 10/05/108  45.1 ng/mL
165. KSI 13/05/346  50.2 ng/mL
166. KDH 16/07/1824  51.2 ng/mL
167. KDH 21/02/0170  52.3 ng/mL
168. 601-226  57.2 ng/mL
169. 601-0186  59.6 ng/mL
170. KDH 21/08/0250  61.7 ng/mL
171. KOM 21/02/0228  62.6 ng/mL
172. 601-209  64.6 ng/mL
173. KCH 13/1/192  67.4 ng/mL
174. KCH 15/05/310  73.4 ng/mL
175. KDH 21/02/0166  76.8 ng/mL
176. KDH 20/01/0166  76.8 ng/mL
177. KOM 21/05/0262  79.4 ng/mL
178. MGT 21/08/0119  89.6 ng/mL
179. 601-257  112 ng/mL
180. KSI 10/09/106  201 ng/mL
181. KSI 21/04/0059  208 ng/mL
182. KSI 10/9/111  284 ng/mL
183. KSI 9/06/0001  504 ng/mL
184. KCH 10/04/099  517 ng/mL
185. KDH 11/9/709  550 ng/mL
186. 601-0260  2460 ng/mL
187. KDH 11/10/733  5010 ng/mL
